Patent US20250163021A1, “2-METHYL-4-PHENYLPIPERIDIN-4-OL DERIVATIVES AS INHIBITORS OF APOL1 AND METHODS OF USING SAME” (Vertex Pharmaceuticals Incorporated, priority 2022, published 2025)

molecular target: T1, APOL1 (Homo sapiens, UniProt O14791); assay: MultiTox-Fluor Multiplex Cytotoxicity Assay in tet-inducible APOL1 T-REx-HEK293 cells; assay type: cell-based; details: tet-inducible transgenic APOL1 T-REx-HEK293 cells, 50 ng/mL tet, 24 hours; ratio of dead to live cells; APOL1 variant (G0/G1/G2) not stated; read-out: IP50 (nM) (i.e., IC50 for cell proliferation)
T1 sequence (O14791 1-398 S342G/I384M): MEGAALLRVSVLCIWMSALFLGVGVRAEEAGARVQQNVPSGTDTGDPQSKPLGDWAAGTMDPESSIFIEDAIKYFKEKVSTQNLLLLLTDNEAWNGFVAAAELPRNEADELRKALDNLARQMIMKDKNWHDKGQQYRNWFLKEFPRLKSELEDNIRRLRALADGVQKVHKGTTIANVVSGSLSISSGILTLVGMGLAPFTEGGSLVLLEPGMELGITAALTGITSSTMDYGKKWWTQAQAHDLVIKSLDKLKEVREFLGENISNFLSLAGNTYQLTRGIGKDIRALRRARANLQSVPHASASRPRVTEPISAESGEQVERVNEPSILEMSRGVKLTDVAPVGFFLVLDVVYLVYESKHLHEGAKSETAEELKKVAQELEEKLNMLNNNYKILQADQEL
Experimental: The MultiTox-Fluor Multiplex Cytotoxicity Assay is a single-reagent-addition, homogeneous, fluorescence assay that measures the number of live and dead cells simultaneously in culture wells. The assay measures cell viability and cytotoxicity by detecting two distinct protease activities. The live-cell protease activity is restricted to intact viable cells and is measured using a fluorogenic, cell-permeant peptide glycyl-phenylalanylamino fluorocoumarin (GF-AFC) substrate. The substrate enters intact cells, where it is cleaved to generate a fluorescent signal proportional to the number of living cells. […] A second, cell-impermeant, fluorogenic peptide substrate (bis-AAF-R^110 Substrate) is used to measure dead-cell protease that has been released from cells that have lost membrane integrity. A ratio of dead to live cells is used to normalize data.
Briefly, the tet-inducible transgenic APOL1 T-REx-HEK293 cell lines were incubated with 50 ng/mL tet to induce APOL1 in the presence of 3-(2-(4-fluorophenyl)-1H-indol-3-yl)-N-((3S,4R)-4-hydroxy-2-oxopyrrolidin-3-yl)propenamide at 10.03, 3.24, 1.13, 0.356, 0.129, 0.042, 0.129, 0.0045, 0.0015, 0.0005 μM in duplicate for 24 hours in a humidified 37° C. incubator. The MultiTox reagent was added to each well and placed back in the incubator for an additional 30 minutes. The plate was read on the EnVision plate reader. A ratio of dead to live cells was used to normalize, and data was imported, analyzed, and fit using Genedata Screener (Basel, Switzerland) software. Data was normalized using percent of control, no tet (100% viability), and 50 ng/mL tet treated (0% viability),and fit using Smart Fit. The reagents, methods, and complete protocol for the MultiTox assay are described below.
Human embryonic kidney (HEK293) cell lines containing a tet-inducible expression system (T-REx™; Invitrogen, Carlsbad, CA) and Adeno-associated virus site 1 pAAVS1-Puro-APOL1 G0 or pAAVS1-Puro-APOL1 G1 or pAAVS1-Puro-APOL1 G2 Clones G0 DC2.13, G1 DC3.25, and G2 DC4.44 were grown in a T-225 flask at ˜90% confluency in cell growth media (DMEM, 10% Tet-free FBS, 2 mM L-glutamine, 100 Units/mL penicillin-streptomycin, 5 μg/mL blasticidin S HCl, 1 μg/mL puromycin dihydrochloride). Cells were washed with DPBS and then trypsinized to dissociate from the flask. Media was used to quench the trypsin, cells were then pelleted at 200 g and resuspended in fresh cell assay media (DMEM, 2% Tet-free FBS, 2 mM L-glutamine, 100 Units/mL penicillin-streptomycin). Cells were counted and diluted to 1.17×10^6 cells/mL. 20 μL of cells (23,400/well) were dispensed in every well of a 384-well Poly-D-Lysine coated plate using the Multidrop dispenser. The plates were then incubated at room temperature for one hour.
Tetracycline is needed to induce APOL1 expression. 1 mg/mL tet stock in water was diluted to 250 ng/mL (5×) in cell assay media. 60 μL of cell assay media (no tet control) was dispensed in columns 1 and 24, and 60 μL of 5× tet in 384-PP-round bottom plate was dispensed in columns 2 to 23 with the Multidrop dispenser.
Assay ready plates from the Global Compound Archive were ordered using template 384_APOL1Cell_DR10n2_50 μM_v3. Compounds were dispensed at 200 nL in DMSO. The final top concentration was 10 μM with a 10 point 3-fold dilution in duplicate in the MultiTox assay.
20 μL was transferred from the 5× tet plate to the ARP and mixed, then 5 μL of 5× tet and the compounds were transferred to the cell plate and mixed using the Bravo. The cell plate was placed in the humidified 37° C. 5% CO2 incubator for 24 hours.
The MultiTox-Fluor Multiplex Cytotoxicity Assay was performed in accordance with the manufacturer's protocol. After cells were incubated with tet and compound for 24 hours, 25 μL of 1× MultiTox reagent was added to each well using the Multidrop dispenser; the plates were placed on a plate shaker (600 rpm) for 2 minutes, then centrifuged briefly and placed back in the 37° C. incubator for 30 minutes. […]

`Cc1nc(CN2CC[C@](O)(c3cccc(Cl)c3)C[C@@H]2C)c[nH]1` [Compound 26] and `Cc1nc(CN2CC[C@](O)(c3cccc(Cl)c3)C[C@@H]2C)co1` [Compound 25] fall in the same range of IC50: 500 to 5000 nM for the first, 500 to 5000 nM for the second.

First: C[C@@H]1C[C@](O)(c2ccccc2)CCN1Cc1ccc2c(c1)n(C)c(=O)n2C [Compound 3]
Second: C[C@H]1C[C@@](O)(c2ccccc2)CCN1Cc1ccc2c(c1)n(C)c(=O)n2C [Compound 2]
The IC50 of the first is higher: 500 to 5000 nM for the first, 100 to 500 nM for the second. The second is the more potent here.

`Cc1cc(C)cc([C@@]2(O)CCN(Cc3ccc4c(c3)n(C)c(=O)n4C)[C@@H](C)C2)c1` [Compound 15] and `Cc1cccc([C@@]2(O)CCN(Cc3ccc4c(c3)n(C)c(=O)n4C)[C@@H](C)C2)c1` [Compound 1, 5-[[(2S,4R)-4-hydroxy-2-methyl-4-(m-tolyl)-1-piperidyl]methyl]-1,3-dimethyl-benzimidazol-2-one] cannot be ordered by IC50: no more than 100 nM for the first, 100 to 500 nM for the second.

`C[C@@H]1C[C@](O)(c2ccc(Cl)cc2)CCN1Cc1ccc2c(c1)n(C)c(=O)n2C` [Compound 10] and `C[C@H]1C[C@@](O)(c2ccc(Cl)cc2)CCN1Cc1ccc2c(c1)n(C)c(=O)n2C` [Compound 7] cannot be ordered by IC50: no more than 100 nM for the first, no more than 100 nM for the second.

`C[C@H]1C[C@@](O)(c2cccc(C3CC3)c2)CCN1Cc1ccc2c(c1)n(C)c(=O)n2C` [Compound 13] and `C[C@H]1C[C@@](O)(c2cccc(Cl)c2)CCN1Cc1ccc2c(c1)n(C)c(=O)n2C` [Compound 4] cannot be ordered by IC50: no more than 100 nM for the first, no more than 100 nM for the second.

`C[C@H]1C[C@@](O)(c2cc(F)cc(Cl)c2)CCN1Cc1ccc2c(c1)n(C)c(=O)n2C` [Compound 8] and `C[C@@H]1C[C@](O)(c2cccc(F)c2)CCN1Cc1ccc2c(c1)n(C)c(=O)n2C` [Compound 11] cannot be ordered by IC50: no more than 100 nM for the first, 100 to 500 nM for the second.

`C[C@H]1C[C@@](O)(c2cccc(Cl)c2)CCN1Cc1ncco1` [Compound 22] and `Cc1ncc(CN2CC[C@](O)(c3cccc(Cl)c3)C[C@@H]2C)cn1` [Compound 19] fall in the same range of IC50: 500 to 5000 nM for the first, 500 to 5000 nM for the second.

`C[C@H]1C[C@@](O)(c2cccc(Cl)c2)CCN1Cc1cnn(CC(=O)N(C)C)c1` [Compound 20] and `C[C@H]1C[C@@](O)(c2cccc(Cl)c2)CCN1Cc1cnn(CCS(C)(=O)=O)c1` [Compound 21] cannot be ordered by IC50: 100 to 500 nM for the first, no more than 100 nM for the second.

First: C[C@H]1C[C@@](O)(c2cccc(Cl)c2)CCN1Cc1ccc(C(N)=O)cc1 [Compound 24]
Second: Cc1ccc(CN2CC[C@](O)(c3cccc(Cl)c3)C[C@@H]2C)nn1 [Compound 18]
The IC50 of the first is lower: 100 to 500 nM for the first, 500 to 5000 nM for the second.

Compared with `CC(C)n1cc(CN2CC[C@](O)(c3cccc(Cl)c3)C[C@@H]2C)cn1` [Compound 17], `C[C@H]1C[C@@](O)(c2cccc(Cl)c2)CCN1Cc1cnn(-c2ccccn2)c1` [Compound 23] is lower in IC50: 500 to 5000 nM for the first, no more than 100 nM for the second.

`C[C@H]1C[C@@](O)(c2ccc(Cl)c(Cl)c2)CCN1Cc1ccc2c(c1)n(C)c(=O)n2C` [Compound 9] and `C[C@@H]1C[C@](O)(c2ccc(Cl)c(Cl)c2)CCN1Cc1ccc2c(c1)n(C)c(=O)n2C` [Compound 12] cannot be ordered by IC50: no more than 100 nM for the first, 100 to 500 nM for the second.

First: C[C@H]1C[C@@](O)(c2cccc(Cl)c2)CCN1Cc1cnn(C2CCS(=O)(=O)C2)c1 (stereo partly drawn) [Compound 16, (2S,4R)-4-(3-chlorophenyl)-1-[[1-(1,1-dioxothiolan-3-yl)pyrazol-4-yl]methyl]-2-methyl-piperidin-4-ol]
Second: C[C@H]1C[C@](O)(c2ccc(Cl)cc2)CCN1Cc1ccc2c(c1)n(C)c(=O)n2C [Compound 6]
The IC50 of the first is lower: 100 to 500 nM for the first, 500 to 5000 nM for the second.

First: C[C@H]1CC(O)(c2cccc(C(F)(F)F)c2)CCN1Cc1ccc2c(c1)n(C)c(=O)n2C (some centres unmarked) [Compound 5]
Second: C[C@H]1C[C@@](O)(c2ccc3c(c2)CCO3)CCN1Cc1ccc2c(c1)n(C)c(=O)n2C [Compound 14]
The IC50 of the first is lower: 100 to 500 nM for the first, 500 to 5000 nM for the second. The first is the more potent here.
